Compound in one experiment: CN(C)C(=N)NC(=N)N [Metformin]
Put plainly: relative viability (nuclei count vs DMSO), 5 days (fraction); higher = more cells survive. The essentials: (§1)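 Only plates meeting two conditions passed: control CV below 25% and at least one doubling. Lung cancer cell lines, kept overnight at 37 °C in 1536-well plates, were pinned with five library-drug doses (not always all listed) √10 apart on vehicle-anchored plates and grown 5 days without medium change. A one-step fix, permeabilisation and Hoechst stain preceded 4× imaging and MetaXpress nuclear counting. Viability equals treated-well nuclei divided by vehicle-well nuclei, as the median over plates.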

Compound in the next experiment: N#CC1(c2ccc(NC(=O)c3cccnc3NCc3ccncc3)cc2)CCCC1 [Apatinib]
The description is as above. A digest of the protocol:
as §1

Turning to NCI-H838, the relative viability was 1.05 with Metformin (10 µM); 1.07 in the experiment with Metformin (31.62 µM); 1.01 with Metformin (100 µM); 0.987 with Metformin (316.23 µM); 1.04 in the experiment with Metformin (1000 µM); 1.08 with Apatinib (0.08 µM). Besides, the relative viability was 1.06 with Apatinib (0.253 µM), 0.97 with Apatinib (0.8 µM), 0.936 in the experiment with Apatinib (2.53 µM) and 0.941 in the experiment with Apatinib (8 µM).
Regarding NCI-H1734, the relative viability with Metformin (10 µM) is 1.01; in the experiment with Metformin (31.62 µM) it was 1.03; in the experiment with Metformin (100 µM) it was 1.04; in the experiment with Metformin (316.23 µM) it was 1.01; with Metformin (1000 µM), 1.02; with Apatinib (0.08 µM), 1.18. The relative viability with Apatinib (0.253 µM) amounted to 0.987; with Apatinib (0.8 µM) it was 0.991; with Apatinib (2.53 µM), 0.909; with Apatinib (8 µM), 0.845.
As to ABC-1, the relative viability with Metformin (10 µM) turned out to be 0.847; with Metformin (31.62 µM) it was 1.2; with Metformin (100 µM), 0.965; with Metformin (316.23 µM) it was 0.948; with Metformin (1000 µM), 0.448; with Apatinib (0.253 µM) it was 1.06. Besides, the figures for the relative viability with Apatinib (0.8 µM), with Apatinib (2.53 µM) and with Apatinib (8 µM) were 0.86, 0.911 and 0.703, respectively.
On to NCI-H1563, for which the relative viability was 0.954 with Metformin (10 µM); 1.11 with Metformin (31.62 µM); 1.16 in the experiment with Metformin (100 µM); 1.07 with Metformin (316.23 µM); 1.14 with Metformin (1000 µM); 0.961 with Apatinib (0.08 µM). In addition, the relative viability in the experiment with Apatinib (0.253 µM) turned out to be 1.08; in the experiment with Apatinib (0.8 µM), 0.98; with Apatinib (2.53 µM), 0.931; in the experiment with Apatinib (8 µM) it was 0.867.
For the cell line NCI-H1915, the relative viability in the experiment with Metformin (31.62 µM) was found to be 0.998; with Metformin (100 µM) it was 1.02; with Metformin (316.23 µM), 0.968; with Metformin (1000 µM) it was 1.01; with Apatinib (0.08 µM) it was 1.06; with Apatinib (0.253 µM), 0.959. The relative viability with Apatinib (0.8 µM) worked out at 0.963; with Apatinib (2.53 µM) it was 0.879; with Apatinib (8 µM), 0.821.
Turning to BEN, the relative viability with Metformin (10 µM) came to 1.26; in the experiment with Metformin (31.62 µM), 1.4; with Metformin (100 µM) it was 1.29; in the experiment with Metformin (316.23 µM), 1.17; in the experiment with Metformin (1000 µM) it was 1.47; in the experiment with Apatinib (0.08 µM), 1. In addition, the relative viability is 0.92 with Apatinib (0.253 µM), 1.02 in the experiment with Apatinib (0.8 µM), 0.821 with Apatinib (2.53 µM) and 0.807 with Apatinib (8 µM).
As to ChaGo-K-1, the relative viability with Metformin (10 µM) is 0.951; with Metformin (31.62 µM), 1.11; in the experiment with Metformin (100 µM) it was 1.05; with Metformin (316.23 µM), 0.896; in the experiment with Metformin (1000 µM) it was 0.987; in the experiment with Apatinib (0.08 µM) it was 1.01. Besides, the relative viability was found to be 1.09 in the experiment with Apatinib (0.253 µM), 0.932 with Apatinib (0.8 µM), 0.938 in the experiment with Apatinib (2.53 µM) and 0.989 in the experiment with Apatinib (8 µM).
For the cell line NCI-H1355, the relative viability was 0.838 with Metformin (10 µM); 0.953 in the experiment with Metformin (31.62 µM); 0.963 in the experiment with Metformin (100 µM); 0.992 in the experiment with Metformin (316.23 µM); 1.05 in the experiment with Metformin (1000 µM); 0.993 in the experiment with Apatinib (0.08 µM). Also, the relative viability is 0.962 in the experiment with Apatinib (0.253 µM), 0.956 in the experiment with Apatinib (0.8 µM), 0.9 in the experiment with Apatinib (2.53 µM) and 0.885 with Apatinib (8 µM).
On to IA-LM, for which the relative viability in the experiment with Metformin (10 µM) was found to be 0.982; with Metformin (31.62 µM) it was 1.16; with Metformin (100 µM) it was 1.15; with Metformin (316.23 µM) it was 1.07; with Metformin (1000 µM), 1.15; with Apatinib (0.08 µM), 0.955. In addition, the relative viability was found to be 0.9 with Apatinib (0.253 µM), 0.994 in the experiment with Apatinib (0.8 µM), 0.694 with Apatinib (2.53 µM) and 0.535 with Apatinib (8 µM).
In the case of NCI-H1975, the relative viability in the experiment with Metformin (10 µM) is 1.06; with Metformin (31.62 µM), 1.16; with Metformin (100 µM), 1.09; with Metformin (316.23 µM) it was 1.12; in the experiment with Metformin (1000 µM) it was 1.21; with Apatinib (0.08 µM), 0.97. In addition, the relative viability stood at 0.981 in the experiment with Apatinib (0.253 µM), 0.91 with Apatinib (0.8 µM), 0.844 in the experiment with Apatinib (2.53 µM) and 0.943 with Apatinib (8 µM).
HCC-44: the relative viability in the experiment with Metformin (10 µM) came out at 0.938; with Metformin (31.62 µM), 0.997; with Metformin (100 µM), 1.02; in the experiment with Metformin (316.23 µM), 0.909; with Metformin (1000 µM), 0.956; with Apatinib (0.08 µM), 0.959. In addition, the relative viability with Apatinib (0.253 µM) worked out at 0.941; with Apatinib (0.8 µM) it was 0.95; with Apatinib (2.53 µM), 0.913; with Apatinib (8 µM), 0.922.
Take NCI-H2087: the relative viability in the experiment with Metformin (10 µM) amounted to 0.79; with Metformin (31.62 µM), 0.965; with Metformin (100 µM), 0.944; in the experiment with Metformin (316.23 µM), 0.813; in the experiment with Metformin (1000 µM), 1.01; in the experiment with Apatinib (0.08 µM), 1.05. Besides, the relative viability with Apatinib (0.253 µM) came to 1.03; in the experiment with Apatinib (0.8 µM), 1.22; with Apatinib (2.53 µM), 0.788; with Apatinib (8 µM), 0.814.
